Test: isobaric coefficient of expansion
Details: Liquid, Micro DSCII

CCCCn1cc[n+](C)c1.F[B-](F)(F)F [1-butyl-3-methylimidazolium tetrafluoroborate]
isobaric coefficient of expansion
Details | 5000 kPa | 10000 kPa | 15000 kPa | 20000 kPa | 25000 kPa | 30000 kPa | 35000 kPa | 40000 kPa | 45000 kPa | 50000 kPa
278.15 K | 0.000605 1/K | 0.0006 1/K | 0.000592 1/K | 0.000586 1/K | 0.000581 1/K | 0.000575 1/K | 0.000571 1/K | 0.000564 1/K | 0.000559 1/K | 0.000553 1/K
288.15 K | 0.000598 1/K | 0.000592 1/K | 0.000587 1/K | 0.000582 1/K | 0.000577 1/K | 0.00057 1/K | 0.000566 1/K | 0.000557 1/K | 0.000555 1/K | 0.000553 1/K
298.15 K | 0.000594 1/K | 0.00059 1/K | 0.000581 1/K | 0.000575 1/K | 0.000571 1/K | 0.000563 1/K | 0.000558 1/K | 0.000552 1/K | 0.000547 1/K | 0.000545 1/K
308.15 K | 0.000588 1/K | 0.00058 1/K | 0.000575 1/K | 0.000569 1/K | 0.000561 1/K | 0.000557 1/K | 0.00055 1/K | 0.000547 1/K | 0.000542 1/K | 0.000535 1/K
318.15 K | 0.00058 1/K | 0.000577 1/K | 0.00057 1/K | 0.000561 1/K | 0.000558 1/K | 0.000552 1/K | 0.000547 1/K | 0.000543 1/K | 0.000536 1/K | 0.000532 1/K
328.15 K | 0.000576 1/K | 0.00057 1/K | 0.000563 1/K | 0.000559 1/K | 0.000551 1/K | 0.000544 1/K | 0.000541 1/K | 0.000534 1/K | 0.000528 1/K | 0.000523 1/K
338.15 K | 0.000571 1/K | 0.000566 1/K | 0.000561 1/K | 0.000552 1/K | 0.000547 1/K | 0.000543 1/K | 0.000536 1/K | 0.000531 1/K | 0.000526 1/K | 0.000522 1/K
348.15 K | 0.000569 1/K | 0.000566 1/K | 0.000557 1/K | 0.000552 1/K | 0.000545 1/K | 0.000539 1/K | 0.000535 1/K | 0.000528 1/K | 0.000524 1/K | 0.00052 1/K
